This is an account of results in patent US7241785B2, “Five-membered heterocyclic alkanoic acid derivative” (Takeda Pharmaceutical Company Limited, priority 2001, dated 2007).

The test system of data set [1] is KKA^y mice. Briefly: Total cholesterol lowering action and plasma anti-arteriosclerosis index-enhancing action in mice. The note with it: Mus musculus, po, 96 h, 0.01% in powdery diet, four days; for change in vivo at 0.01 % in diet: percent increase of index [(HDL cholesterol/total cholesterol)×100] vs non-treatment group (100%); for inhibition in vivo at 0.01 % in diet: percent reduction of total cholesterol level vs non-treatment group (100%). The data set is classed as in vivo. As for the experimental part: Total Cholesterol Lowering Action and Plasma Anti-Arteriosclerosis Index-Enhancing Action in Mice
Test compounds were mixed in a powdery diet (CE-2, Japan Clea concentration of 0.01%, and freely given to KKA^y mice (11 to 12 weeks old, 5 mice per group), a model of type 2 diabetes mellitus, for four days. During this period, water was given freely. Blood was sampled from orbital venous plexus, and components in plasma separated from the blood were determined. Total cholesterol levels were determined using L type Wako Cholesterol (Wako Pure Chemical Industries, Ltd.). Precipitation reagent for HDL cholesterol was added to a part of the plasma to precipitate non-HDL lipoprotein, and cholesterol (HDL cholesterol) in the resulting supernatant was determined. The plasma anti-arteriosclerosis index [(HDL cholesterol/total cholesterol)×100] was calculated using these cholesterol levels.
In the Table, “total cholesterol lowering action (%)” represents a percent reduction (%) of the total cholesterol level in the treatment group when the total cholesterol level in the non-treatment group is taken as 100%. In addition, “plasma anti-arteriosclerosis index-enhancing action (%)” represents a percent increase (%) of the plasma anti-arteriosclerosis index in the treatment group when the plasma anti-arteriosclerosis index in the non-treatment group is taken as 100%.

The test system of data set [2] is KKA^y mice. Briefly: Hypoglycemic and hypolipidemic (hypotriglyceridemic) actions in mice. The data set is classed as in vivo. The note with it: Mus musculus, po, 96 h, 0.01% in powdery diet, four days. On the procedure: Hypoglycemic and Hypolipidemic (Hypotriglyceridemic) Actions in Mice
Test compounds were mixed in a powdery diet (CE-2, Japan Clea) at the concentration of 0.01%, and freely given to KKA^y mice (11 to 12 weeks old, 5 mice per group), a model of type 2 diabetes mellitus, for four days. During this period, water was given freely. Blood was sampled from orbital venous plexus, and glucose and triglyceride levels in plasma separated from the blood were determined enzymatically using L type Wako Glu2 (Wako Pure Chemical Industries, Ltd.) or L type Wako TG.H (Wako Pure Chemical Industries, Ltd.), respectively.
In the Table, “hypoglycemic action (%)” represents a percent reduction (%) of the blood glucose level in the treatment group when the blood glucose level in the non-treatment group is taken as 100%. In addition, “hypolipidemic action (%)” represents a percent reduction (%) of the blood triglyceride level in the treatment group when the blood triglyceride level in the non-treatment group is taken as 100%.

Where [3] appears, read: percent reduction of blood glucose level vs non-treatment group (100%), read-out: Hypoglycemic action (%).
Setting [4] is: percent reduction of blood triglyceride level vs non-treatment group (100%), read-out: Hypolipidemic action (%).

The melting point is the temperature of the solid-liquid transition. Molecule `Cc1oc(-c2ccccc2)nc1COc1ccc(COc2nn(Cc3ccccc3)cc2CC(=O)O)cn1` [Example 40, [1-benzyl-3-[6-(5-methyl-2-phenyl-4-oxazolylmethoxy)-3-pyridylmethoxy]-1H-pyrazol-4-yl]acetic acid] registered a melting point of 87 to 88 °C. Also, in the data set with KKA^y mice [1], the change in vivo at 0.01 % in diet was determined as 22% and the inhibition in vivo at 0.01 % in diet was 13%. Also, the inhibition in vivo at 0.01 % in diet in the data set on KKA^y mice [2] (setting [3]) is 52%. In the data set with KKA^y mice [2] (setting [4]), the inhibition in vivo at 0.01 % in diet was found to be 76%.
Molecule `Cc1oc(-c2ccccc2)nc1COc1ccc(COc2nn(C)cc2CC(=O)O)cc1` [Example 24, [1-methyl-3-[4-(5-methyl-2-phenyl-4-oxazolylmethoxy)benzyloxy]-1H-pyrazol-4-yl]acetic acid] came in with a melting point of 133 to 134 °C. In the data set on KKA^y mice [2] (setting [3]), the inhibition in vivo at 0.01 % in diet was found to be 50%. In addition, the inhibition in vivo at 0.01 % in diet with KKA^y mice [2] (setting [4]) turned out to be 22%.
`COc1cc(COc2nn(Cc3ccccc3)cc2CC(=O)O)ccc1OCc1nc(-c2ccccc2)oc1C` [Example 46, [1-benzyl-3-[3-methoxy-4-(5-methyl-2-phenyl-4-oxazolylmethoxy)benzyloxy]-1H-pyrazol-4-yl]acetic acid] registered a melting point of 99 to 100 °C. In the data set with KKA^y mice [2] (setting [3]), the inhibition in vivo at 0.01 % in diet was 54%. For the same molecule, the inhibition in vivo at 0.01 % in diet in the data set on KKA^y mice [2] (setting [4]) was determined as 56%.
For `Cc1oc(-c2ccccc2)nc1COc1ccc(COc2nn(Cc3ccccc3)cc2CC(=O)O)cc1` [Example 44, [1-benzyl-3-[4-(5-methyl-2-phenyl-4-oxazolylmethoxy)benzyloxy]-1H-pyrazol-4-yl]acetic acid] the same measures were 91 to 92 °C, 53% and 68%.
`COc1cc(COc2nn(-c3ccccc3)cc2CC(=O)O)ccc1OCc1nc(-c2ccco2)oc1C` [Example 73, [3-[4-[2-(2-furyl)-5-methyl-4-oxazolylmethoxy]-3-methoxybenzyloxy]-1-phenyl-1H-pyrazol-4-yl]acetic acid]: the melting point is 179 to 180 °C.
Still for that read-out and setting: the same measure for `COC(=O)Cc1cn(-c2ccccc2)nc1OCc1ccc(OCc2nc(-c3ccccc3)oc2C)nc1` [Example 53, methyl [3-[6-(5-methyl-2-phenyl-4-oxazolylmethoxy)-3-pyridylmethoxy]-1-phenyl-1H-pyrazol-4-yl]acetate]: 96 to 97 °C; for `Cc1oc(-c2ccccc2)nc1COc1cc(COc2nn(C)cc2CC(=O)O)on1` [Example 30, [1-methyl-3-[3-(5-methyl-2-phenyl-4-oxazolylmethoxy)-5-isoxazolylmethoxy]-1H-pyrazol-4-yl]acetic acid]: 149 to 150 °C.
Take `Cn1cc(CC(=O)O)c(OCc2ccc(OCc3csc(-c4ccccc4)n3)nc2)n1` [Example 34, [1-methyl-3-[6-(2-phenyl-4-thiazolylmethoxy)-3-pyridylmethoxy]-1H-pyrazol-4-yl]acetic acid]: the melting point is 156 to 157 °C.
On the same count and under the same terms, then `Cc1oc(-c2ccccc2)nc1COc1ccc(Sc2nc(CC(=O)O)cs2)cc1` [Example 19, [2-[4-(5-methyl-2-phenyl-4-oxazolylmethoxy)phenylthio]-4-thiazolyl]acetic acid], with 180 to 181 °C.
On the same count and under the same terms, the same measure for `Cc1oc(-c2ccccc2)nc1COc1cccc(COc2cc(CCC(=O)O)n(-c3ccccc3)n2)c1` [Example 83, 3-[3-[3-(5-methyl-2-phenyl-4-oxazolylmethoxy)benzyloxy]-1-phenyl-1H-pyrazol-5-yl]propionic acid]: 137 to 138 °C.
`Cc1oc(-c2ccco2)nc1COc1ccc(COc2nn(C)cc2CC(=O)O)cn1` [Example 38, [3-[6-[2-(2-furyl)-5-methyl-4-oxazolylmethoxy]-3-pyridylmethoxy]-1-methyl-1H-pyrazol-4-yl]acetic acid]: the melting point lay within 155 to 156 °C. For the same molecule, in the data set on KKA^y mice [1], the change in vivo at 0.01 % in diet is 12% and the inhibition in vivo at 0.01 % in diet was found to be 12%. Further, the inhibition in vivo at 0.01 % in diet with KKA^y mice [2] (setting [3]) came to 47%. The inhibition in vivo at 0.01 % in diet with KKA^y mice [2] (setting [4]) was 36%.
`Cc1oc(-c2ccccc2)nc1COc1ccc(COc2nn(Cc3ccccc3)cc2CCC(=O)O)cc1` [Example 20, 3-[1-benzyl-3-[-4-(5-methyl-2-phenyl-4-oxazolylmethoxy)benzyloxy]-1H-pyrazol-4-yl]propionic acid] showed a melting point of 125 to 126 °C.
On the same count and under the same terms, the same measure for `Cc1oc(-c2ccccc2)nc1COc1ccc(COc2nn(Cc3ccccc3)cc2CCC(=O)O)cn1` [Example 48, 3-[1-benzyl-3-[6-(5-methyl-2-phenyl-4-oxazolylmethoxy)-3-pyridylmethoxy]-1H-pyrazol-4-yl]propionic acid]: 130 to 131 °C; for `COc1cc(COc2nn(C)cc2CC(=O)O)ccc1OCc1nc(-c2ccccc2)oc1C` [Example 42, [3-[3-methoxy-4-(5-methyl-2-phenyl-4-oxazolylmethoxy)benzyloxy]-1-methyl-1H-pyrazol-4-yl]acetic acid]: 153 to 154 °C.
Same read-out and setting: the same measure for `Cc1sc(-c2ccccc2)nc1COc1ccc(COc2nn(C)cc2CC(=O)O)cn1` [Example 36, [1-methyl-3-[6-(5-methyl-2-phenyl-4-thiazolylmethoxy)-3-pyridylmethoxy]-1H-pyrazol-4-yl]acetic acid]: 140 to 141 °C; for `Cn1cc(CC(=O)O)c(OCc2cc(OCc3ccc4ccccc4n3)no2)n1` [Example 32, [1-methyl-3-[3-(2-quinolylmethoxy)-5-isoxazolylmethoxy]-1H-pyrazol-4-yl]acetic acid]: 124 to 125 °C.
